Data published in patent US20260325485A1, “COMPOSITIONS AND METHODS FOR TREATING PANCREATITIS” (The United States Government as represented by the …, priority 2022, published 2026).
“Also recorded” adds a separate entry of the source. Residues, ends and D or L forms follow the SMILES beside them.

Experiments:
pancreas [1] = conditions: pharmacologic autophagy enhancer; cited from earlier work
trypsin [2] = experiment: Trypsin activity in Gnptab−/− acinar cells; format: cell-based, mouse; conditions: Gnptab−/− acinar cells, cholesterol chelator MCD
Experimental: FIGS. 6A-6R show mechanisms mediating increased trypsin activity in Gnptab−/− pancreas. Trypsin activity and its regulation were analyzed in pancreatic (A, C, and D) tissue, (B and P-R) acinar cells, (E-H and O) lobules, and (I-N) subcellular fractions. In B, acinar cells were incubated for 3 hours without and with 20 nM BafAl or 50 μM CatB inhibitor CA-074Me; in P-R, with the cholesterol chelator methyl-β-cyclodextrin (MCD) at the indicated concentrations. In E-H, pancreatic lobules were double stained for TAP and LC3 or LAMP2; in O, for TAP and filipin. Quantitative colocalization analysis was done as detailed in FIG. 2. Each symbol in A, B, J-N, Q, and R represents an individual mouse or cell preparation (n=3-8 per condition). Each symbol in D, G, and H corresponds to 20 to 30 cells in a different field (n=9-20 fields from 3 WT and 3 KO mice or lobule preparations). Values are mean±SEM. **P<0.01, ***P<0.001 vs. WT tissue/lobules (A, G, and H) or corresponding WT subcellular fraction (K and M). ##P<0.01 vs. no inhibitors (B) or MCD (Q and R). ††P<0.01, †††P<0.001 vs. the other two fractions (L and N). Significance was determined by 2-tailed Student's t test (A, G, and H) or 1-way ANOVA followed by Tukey's multiple comparison test (B, K-N, Q, and R). Scale bars: 10 μm.
(§1) Activities of cathepsin (Cat) B and L, caspase-3, trypsin, and lysosomal acid lipase (LAL) were measured in pancreatic tissue or cell homogenates and subcellular fractions with fluorogenic assays using substrates specific for CatB (Z-Arg-Arg-AMC), CatL (Z-Phe-Arg-AMC), caspase-3-like ([…]), trypsin (Boc-Gln-Ala-Arg-AMC), as previously described (1-4, 6, 7); and for LAL (4-methylumbelliferyl oleate), as in (17). In measurements of CatL activity, the assay buffer also contained 50 μM CA-074me, a CatB inhibitor. LAL activity was measured in the absence and presence of the LAL inhibitor lalistat (100 μM) as the difference between these values (17).

mouse acinar cells [3] = conditions: cited from earlier work
mouse acinar cells [4] = experiment: Total cholesterol content of mouse acinar cells (ex vivo pancreatitis models or cholesterol chelator); format: cell-based; conditions: Gnptab−/− acinar cells
Experimental: (§2) FIGS. 8A-8M show derangement of cholesterol metabolism in experimental pancreatitis. Characteristics of cholesterol metabolism were measured, as detailed in FIGS. 4A-4R, in pancreas of WT mice subjected to pancreatitis induced with cerulein (CER-AP), L-arginine (Arg-AP), or CDE diet (CDE-AP) (A, B, and E-G); ex vivo pancreatitis induced in WT mouse (C and I-M) or human acinar cells (D) with 100 nM CCK (CCK-AP) or 1 mM carbachol; and isolated pancreatic mitochondria (H). (B) Cholesterol ester (CE) heatmap; each column represents an individual mouse. (F) IB analysis of the indicated proteins. (G) LAL activity was measured by a fluorogenic assay (n=6 mice per condition). (H) Cholesterol content was measured by enzymatic assay. (I-M) Filipin colocalization with indicated proteins was quantified as detailed in FIGS. 2A-2L. Each symbol in A, C-E, and H represents an individual mouse, or cell or mitochondria preparation (n=3-15 per condition). Each symbol in J, K, and M corresponds to 20-30 cells in a different field (n=10-20 fields from 3 cell preparations per condition). Values are mean±SEM. *P<0.05, **P<0.01, ***P<0.001 vs. the same parameter in control/untreated pancreas, acinar cells or isolated mitochondria. Significance was determined by 2-tailed Student's t test (B, E, H, J, K, and M) or 1-way ANOVA followed by Tukey's multiple comparison test (A, C, and D). Scale bars: 10 μm.
Parameters of cholesterol metabolism were measured in (A, B, E, F) pancreas of mice subjected to pancreatitis induced with cerulean (CER-AP), L-arginine (Arg-AP), or combination of EtOH+palmitoleic acid (EtOH+POA); and (C) ex-vivo models on mouse and human acinar cells treated for 1 h with 100 nM CCK, […] or 500 μM TLCS. In (A), each column in CE heatmap represents an individual mouse. (B, C) Total cholesterol content was measured with cholesterol assay kit (Abcam, ab65390). […] Each symbol corresponds to 20-30 cells in each of 8 high-expression (qPCR) of proteins regulating cholesterol synthesis (4 mice/group). (B-D) Each symbol represents an individual animal or cell preparation. (A-D, F) Values are mean±SE (*p<0.05, **p<0.01, ***p<0.001 vs saline or control). Signficance was determined by 2-tailed student's t test.
(§3) Ex vivo pancreatitis models were performed on mouse and human acinar cells, and human pancreas slices by incubation with supramaximal CCK (100 nM) or carbachol (1 mM), as described previously (80, 81).
(§4) Total cholesterol content was measured with Cholesterol Assay kit per manufacturer's instructions. Samples of mouse pancreas and liver, cell pellet homogenates, subcellular fractions, isolated mitochondria, and serum were diluted in the reaction buffer containing cholesterol probe and incubated at 37° C. for 1 h in the dark. To measure total cholesterol, the samples were subjected to digestion with cholesterol esterase. To measure non-esterified cholesterol, the esterase was omitted from the assay.
Fluorescence intensity (for cholesterol) and absorbance (for TAG) were measured in a Tecan microplate reader. Each measurement was in duplicate, and the values were normalized per mg total protein in the sample.

trypsin [5] = experiment: Trypsin activity in WT mouse acinar cells without and with CCK; format: cell-based; conditions: MCD 10 mM, 1 hour, 100 nM CCK
Experimental: FIGS. 10A-10N show deranged cholesterol metabolism causes acinar cell damage, while its normalization ameliorates experimental pancreatitis. (A-D) Cholesterol content and trypsin activity were measured (per mg protein) in WT mouse acinar cells incubated for 1 hour without and with methyl-β-cyclodextrin (MCD; 10 mM) or cholesterol-loaded MCD (MCD-Chol; 200 μg/mL), in the presence or absence of 100 nM CCK. Values are expressed relative to those in cells without MCD/MCD-Chol. (E-J) WT mice received daily i.p. injections of the LXR agonist T0901317 (T09), simvastatin (Sim; 20 mg/kg each), or vehicle. On day 4, mice were subjected to CER-AP and pancreata collected for analyses (see also FIG. 20). Cholesterol content (E), trypsin activity (F), and pancreas histopathology (H&E staining; G) were measured. (H, I, L, and N) IB analysis of markers/mediators of autophagy (LC3, p62), ER stress (CHOP, GRP-78), and mitophagy (Parkin). Ub, ubiquitylated proteins. (J) Mitochondrial fragmentation was assessed by immunostaining for Tom20, as detailed in FIG. 7G. […] Pancreas histopathology (H&E staining; M) and levels of autophagy markers/mediators (N) were measured. […] Significance was determined by 2-tailed Student's t test (A-D) or 1-way ANOVA followed by Tukey's multiple comparison test (E, F, and I). […]

[6] = system: mouse pancreatic acinar cells; experiment: Ex-vivo CCK-AP in mouse pancreatic acinar cells treated with simvastatin or MCD; format: cell-based; conditions: simvastatin 4 μM, 3 h or MCD 10 mM, 1 h
Experimental: FIGS. 26A-26D preventing cholesterol overload ameliorates ex-vivo pancreatitis. Mouse pancreatic acinar cells were incubated (A, B) with simvastatin (4 μM, 3 h) or (C, D) cholesterol chelator, methyl-β-cyclodextrin (MCD; 10 mM, 1 h) and then subjected to CCK-AP for 1 (D) or 3 h (A, B). Cholesterol content (A, C) necrosis (B), and trypsin activity (D) were measured. Each symbol represents an individual cell preparation. Values are mean±SEM*p<0/05, **p<0.01 vs control; #p<0.05 ##p<0.01; vs CCK, no inhibitor.
as §3, §1, §4

pancreas [7] = experiment: Pancreatic total cholesterol and lipids in acute pancreatitis models in WT mice; format: in vivo, mouse
Experimental: as §2
Parameters of cholesterol metabolism were measured in (A, B, E, F) pancreas of mice subjected to pancreatitis induced with cerulean (CER-AP), L-arginine (Arg-AP), or combination of EtOH+palmitoleic acid (EtOH+POA); and (C) ex-vivo models on mouse and human acinar cells treated for 1 h with 100 nM CCK, […] or 500 μM TLCS. […] (B, C) Total cholesterol content was measured with cholesterol assay kit (Abcam, ab65390). […] Signficance was determined by 2-tailed student's t test. […]
(§5) Total cholesterol content was measured with Cholesterol Assay kit per manufacturer's instructions. […]
Triglycerides (TAG) content was measured using Triglyceride Assay kit. […]

[8] = system: lysosomal acid lipase (LAL); experiment: Lysosomal acid lipase (LAL) activity in cerulein pancreatitis; format: in vivo, mouse; conditions: WT mice with CER-AP
Experimental: as §2, with “Each symbol in A, C-E, and H represents an individual mouse, or cell or mitochondria preparation (n=3-15 per condition). Each symbol in J, K, and M corresponds to 20-30 cells in a different field (n=10-20 fields from 3 cell preparations per condition). Values are mean±SEM. *P<0.05, **P<0.01, ***P<0.001 vs. the same parameter in control/untreated pancreas, acinar cells or isolated mitochondria.” left out, “Scale bars: 10 μm.” left out
Activities of cathepsin (Cat) B and L, caspase-3, trypsin, and lysosomal acid lipase (LAL) were measured in pancreatic tissue or cell homogenates and subcellular fractions with fluorogenic assays using substrates specific for CatB (Z-Arg-Arg-AMC), CatL (Z-Phe-Arg-AMC), caspase-3-like ([…]), trypsin (Boc-Gln-Ala-Arg-AMC), as previously described (1-4, 6, 7); and for LAL (4-methylumbelliferyl oleate), as in (17). […]

[9] = Serum cholesterol in cerulein pancreatitis; format: in vivo, mouse; conditions: CER-AP
Experimental: (§6) Cerulein-induced (CER-AP) and L-arginine induced (Arg-AP) acute pancreatitis models were performed in 12-week-old C57BL/6 mice that received 7 hourly i.p. injections of 50 μg/kg cerulein or 3 hourly i.p. injections of 3.3 g/kg Arg; controls received physiologic saline injections. Mice were euthanized for analyses 7 hours after the first cerulein or 24 hours after the first Arg injection. Choline deficient, ethionine-supplemented (CDE) pancreatitis was induced in young (~5-weeks old) female mice fed either CDE or control diet. Mice were euthanized 72 hours after the diet initiation. These models have been described in detail (1-7).
as §4

pancreatic mitochondria = experiment: Cholesterol content of isolated pancreatic mitochondria in cerulein pancreatitis; format: in vivo, mouse; conditions: WT mice with CER-AP
Experimental: as §2, with “Each symbol in A, C-E, and H represents an individual mouse, or cell or mitochondria preparation (n=3-15 per condition). Each symbol in J, K, and M corresponds to 20-30 cells in a different field (n=10-20 fields from 3 cell preparations per condition). Values are mean±SEM. *P<0.05, **P<0.01, ***P<0.001 vs. the same parameter in control/untreated pancreas, acinar cells or isolated mitochondria.” left out, “Scale bars: 10 μm.” left out
Mitochondria were isolated from mouse pancreas and liver in a Ca2+-free medium in the presence of 1 mM EGTA, as in (3-5,13). The value of respiratory control ratio in these preparations, measured in the presence of succinate (quality control parameter), was greater than 3.0.
as §5

pancreas [10] = experiment: Pancreatic mRNA expression and protein levels (qPCR, IB) in cerulein pancreatitis; format: in vivo, mouse
Experimental: as §2
FIGS. 9A-9E show cerulein pancreatitis decreases pancreatic levels of GNPTAB and mediators of cholesterol trafficking through LE/Ly. (A, D, and E) IB analysis of the indicated proteins in pancreas of WT mice subjected to CER-AP and in Gnptab^−/− mice. NS, nonspecific band. (B and C) Cholesterol content was measured in pancreas of (B) WT mice that received daily i.p. injections of the NPC1 inhibitor U18666A (10 mg/kg) or vehicle for 15 days and (C) Lamp2^−/− mice. Each symbol in B, C, and E represents an individual mouse. Values are mean±SEM from 3 to 5 mice per condition. ***P<0.001 vs. the same parameter in WT control/untreated or saline-treated mice. Significance was determined by 2-tailed Student's t test (B and C) or 1-way ANOVA followed by Tukey's multiple comparison test (E).
as §6
Immunoblots were developed using enhanced chemiluminescence detection kit (Pierce), and band intensities were quantified by densitometry using FluorChem HD2 imaging system (Alpha Innotech/ProteinSimple).
qPCR. Total RNA was isolated from tissue or cells using QIAGEN RNeasy Plus kit according to the manufacturer's instructions, quantified in NanoDrop, and converted to cDNA with high-capacity cDNA reverse transcription kit. KAPA SYBR FAST qPCR Master Mix kit and a LightCycler 480 were used for quantitative PCR. Fold change related to the control group was calculated using the 2ΔΔCt method with Rplp0/36B4 as the reference gene. Primers are available upon request.

## OC[C@H]1O[C@H](O[C@H]2O[C@H](CO)[C@@H](O)[C@H](O)[C@H]2O)[C@H](O)[C@@H](O)[C@@H]1O [trehalose]
Pancreas [1]
  pancreas injury in AP models: largely prevented

## methyl-β-cyclodextrin [MCD]
Trypsin [2]
  Trypsin activity, KO cells, MCD: greatly decreased
Mouse acinar cells [3]
  usual cholesterol-reducing MCD concentration: 1 to 5 mM
Mouse acinar cells [4]
  Resistance of Gnptab−/− acinar cells to MCD: highly resistant
Mouse acinar cells [4]; only at this concentration
  MCD concentration at which cholesterol-reducing effect is evident: 50 mM
Trypsin [5]
  CCK-induced trypsinogen activation: reduced
[6]
  cholesterol overload in ex-vivo CCK-AP: Reducing
  extent of necrosis in ex-vivo CCK-AP: greatly decreased
  trypsinogen activation in ex-vivo CCK-AP: greatly decreased

## CSCC[C@H](NC(=O)[C@H](Cc1c[nH]c2ccccc12)NC(=O)CNC(=O)[C@@H](NC(=O)[C@H](Cc1ccc(OS(=O)(=O)O)cc1)NC(=O)[C@H](CC(=O)O)NC(=O)[C@H](CCC(N)=O)NC(=O)[C@@H]1CCC(=O)N1)[C@@H](C)O)C(=O)N[C@@H](CC(=O)O)C(=O)N[C@@H](Cc1ccccc1)C(N)=O [cerulein] (HELM PEPTIDE1{[Glp].Q.D.[O=C([C@H](Cc1ccc(OS(=O)(=O)O)cc1)N[*:1])[*:2]].T.G.W.M.D.F.[am]}$$$$V2.0)
Pancreas [7]; Arg-AP, CER-AP or CDE-AP
  pancreatic total cholesterol, AP models: increases
Pancreas [7]; CER-AP
  pancreatic triglycerides in CER-AP: unchanged
[8]
  LAL activity: increased
[9]
  serum cholesterol levels: did not change
Pancreatic mitochondria
  mitochondrial cholesterol: elevated
Pancreas [10]; CER-AP
  decrease in pancreatic GNPTAB α-subunit protein level: approximately 5 fold
  pancreatic LAMP2 levels: greatly decrease
Pancreas [10]; WT mice with CER-AP
  LDLR protein level: increased
  SREBP2 protein level: increased
  pancreatic NPC1: greatly decreased
  pancreatic mRNA expression for enzymes mediating cholesterol synthesis: upregulation
Pancreas [10]; WT mice with CER-AP, listed as CER
  NPC2 levels: no change; also recorded: not reduced
